Experimental data published in article PMC9069370, “Integrated Design of a Membrane‐Lytic Peptide‐Based Intravenous Nanotherapeutic Suppresses Triple‐Negative Breast Cancer” (Advanced Science, 2022).
Where a name gives a salt, the structure may show the parent alone. Square brackets hold non-standard residues; d marks the D form. Peptide text beside a SMILES is read from it.

Key:
[1] = ref [11], [19], [47]; cited from earlier work
Description: Table 1 ACP activity comparison. Reported in vitro anticancer activity (IC50) of ACPs | column: Assay and Notes

MCF‐7 = conditions: 2D; ref [11], [19], [47]; cited from earlier work
Description: Table 1 ACP activity comparison. Reported in vitro anticancer activity (IC50) of ACPs | column: IC50 [µM]

HMLER‐shEcad [2] = assay: cells; assay type: cell-based, human
Description: (§1) […], and MCF-10A cells were maintained in MEGM with supplements and growth factors bovine pituitary extract, hydrocortisone, human epidermal growth factor, insulin, and gentamicin/amphotericin-B.

MCF‐10A = assay: cells; assay type: cell-based, human; conditions: for IC50: non-cancerous cells, MTT, 72 h incubation, library peptides n = 2, D-enantiomers and small molecules replicated six times, read-out: IC50 (µM) MCF-10A
Description: as §1

HMLER = assay: cells; assay type: cell-based, human; conditions: 2D culture, MTT, 72 h incubation; library peptides average of two independent experiments (n = 2); D-enantiomers and small molecules replicated six times; read-out: IC50 (µM) HMLER
Description: as §1

[3] = Tryptophan fluorescent binding assay; conditions: tryptophan fluorescence; 50 µM peptide, lipid titrated 0-5000 µM; phosphate buffered saline 1X, pH 7.4; values as lipid per peptide
How it was run: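 Peptides at 50 µM were incubated for 1 h with increasing amounts of 3:1 POPC:POPG unilamellar vesicles in 1X phosphate buffered saline, pH 7.4. Tryptophan emission (300–450 nm, excitation 280 nm) was recorded on a Cytation 5 multi-mode reader. The lipid concentration giving 50 % peptide binding was determined and reported as a lipid-to-peptide ratio.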

U2OS = assay type: cell-based, human; conditions: 2D culture, MTT, 72 h incubation; library peptides n = 2; D-enantiomers and small molecules replicated six times; read-out: IC50 (µM) U2OS
HEK293T = assay: cells; assay type: cell-based, human; conditions: non-cancerous cells; 2D culture, MTT, 72 h incubation; library peptides n = 2; D-enantiomers and small molecules replicated six times; read-out: IC50 (µM) HEK293T
HMLER‐shEcad [4] = assay: Resistance formation after prolonged drug exposure, 2D culture; assay type: cell-based, human; conditions: for IC50: Homo sapiens
Method: Cancer stem cells can survive treatment, gain resistance, and reseed tumors, presenting a major challenge for chemotherapy.^[ [2] ^] […] Drugs were added with medium every 3–4 days, maintaining smooth cell growth, and 125 000 cells were split into new T25 flasks with a total volume of 5 mL once per week.

[5] = ANTS/DPX liposome leakage assay; conditions: 0.5 mM vesicles, peptide 0-20 µM, 3 h incubation, lipid per peptide
How it was run: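 The value is the lipid-to-peptide ratio giving 50% ANTS/DPX release, with fluorescence (350/510 nm) read after 3 h and scaled to 10% Triton as full leakage. Peptides were titrated into 0.5 mM LUVs of POPC or 3POPC/1POPG (0.1 µm, free dye removed by gel filtration) in PBS at pH 7.4 or 4.8.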

[6] = Tryptophan fluorescence and circular dichroism binding to vesicles; conditions: binding to both POPC and POPG vesicles; 50 µM peptide, 10 mM phosphate buffer, pH 7.0
Method: 50 µM ACP peptides and varied concentrations (concentrations: 0, 25, 50, 100, 150, 200, 250, 500, 1250, and 2500 µM) of POPC or POPC:POPG (3:1 ratio) large unilamellar vesicles were prepared in 10 mM phosphate buffer (pH 7.0). The solutions were measured after 1 h of incubation. Excitation was fixed at 280 nm (slit 9 nm) and emission was collected from 300 to 450 nm (slit 9 nm). The spectra were recorded using Cytation 5 Cell Imaging Multi‐Mode Reader from BioTek and were averaged by three scans.
Extended Data Figure 9 | Peptide-lipid interactions. Conformational change of tryptophan fluorescence quenching of 50 µM DHK peptide with titrated a, POPC or b, POPG LUV concentration (0, 12.5, 25, 50, […]
POPC or d, POPG LUV against elevated temperature (20, 45, 70, and 95 °C). The black solid line represents peptide-only in buffer at 20 °C. All the experiments were performed in 10 mM phosphate buffer, pH 7.0.
(1 picture or pasted object on this page, not shown here)

human red blood cells = assay: Haemolysis (human red blood cells); assay type: cell-based; conditions: PBS, 37 °C, 1 h, one value for DHK, d‐DHK and d‐EEK together
Method: Fresh human red blood cells were obtained from Interstate Blood Bank, Inc., and thoroughly washed in PBS until the supernatant was clear. The peptide was serially diluted in PBS starting at a concentration of 200 µM. […] As a positive lysis control, 1% triton was used. […] After centrifugation, 10 µL of supernatant was transferred to 90 µL of ddH2O in a fresh 96‐well plate.

MCF‐10A mammospheres = assay: Mammosphere viability assay (TOX8); assay type: cell-based, human; conditions: for D‐enantiomer average IC90 against MCF‐10A mammospheres: one average for d‐DHK and d‐EEK together
[7] = tested on: HMLER‐shEcad tumorspheres; assay: cells; assay type: cell-based, human
[8] = 2D culture, MTT, 72 h incubation, library peptides average of two independent experiments (n = 2), D-enantiomers and small molecules replicated six times, read-out: IC50 (µM) HMLER-shEcad
[9] = PBS 1X pH 7.4, high ratio = more potent

SMILES: CC(C)[C@H](NC(=O)[C@H](CCCCN)NC(=O)[C@@H](NC(=O)[C@H](CCCCN)NC(=O)[C@@H](NC(=O)[C@H](CCCCN)NC(=O)[C@@H](NC(=O)[C@@H]1CCCN1C(=O)[C@H]1CCCN1C(=O)[C@@H](NC(=O)[C@H](CCCCN)NC(=O)[C@@H](NC(=O)[C@H](CCCCN)NC(=O)[C@@H](NC(=O)[C@H](CCCCN)NC(=O)[C@@H](NC(=O)[C@@H](N)CCCCN)C(C)C)C(C)C)C(C)C)C(C)C)[C@@H](C)O)C(C)C)C(C)C)C(=O)N[C@@H](CCCCN)C(N)=O [SVS‐1] (H-KVKVKVKV[dP]PTKVKVKVK-NH2; N-terminus and C-terminus assumed)
- drug resistance note [1]: 2D; in vitro drug resistance was observed
- IC50 (MCF‐7): 11 µM

SMILES: CC(C)C[C@H](NC(=O)CN)C(=O)N[C@@H](CC(C)C)C(=O)N[C@@H](CC(=O)O)C(=O)N[C@@H](CC(C)C)C(=O)N[C@@H](CC(C)C)C(=O)N[C@@H](Cc1c[nH]cn1)C(=O)N[C@@H](CC(C)C)C(=O)N[C@@H](CC(C)C)C(=O)N[C@@H](CC(C)C)C(=O)N[C@@H](CCCCN)C(=O)N[C@@H](C)C(=O)N[C@@H](C)C(=O)NCC(=O)N[C@@H](Cc1c[nH]c2ccccc12)C(N)=O [DHK] (H-GLLDLLHLLLKAAGW-NH2)
- IC50 (HMLER‐shEcad [2]; [8]): 1.02 ± 0.12 µM
- IC50 (MCF‐10A; 2D culture): 5.05 ± 1.34 µM
- IC50 (HMLER): 1.75 ± 0.49 µM
- Lipid Concentration-induced 50% Peptide Binding (L/P), 3POPC/1POPG Vesicle [3]: 0.38 L/P
- Lipid Concentration-induced 50% Peptide Binding (L/P), POPC Vesicle [3]: 0.20 L/P
- IC50 (U2OS): 20.4 ± 2.05 µM
- IC50 (HEK293T): 7.3 ± 0.42 µM
- shift in IC50 after prolonged exposure to ACP (HMLER‐shEcad [4]; 2D HMLER‐shEcad after 28 days co‐incubation with 0.4 µM d‐DHK): no shift in IC50
- Peptide Concentration-induced 50 % ANTS/DPX leakage at pH 4.8 (L/P), 3POPC/1POPG Vesicle ([5]; HCl-adjusted PBS 1X pH 4.8): 183 L/P
- Peptide Concentration-induced 50 % ANTS/DPX leakage at pH 4.8 (L/P), POPC Vesicle ([5]; HCl-adjusted PBS 1X pH 4.8): 47 L/P
- Peptide Concentration-induced 50 % ANTS/DPX leakage at pH 7.4 (L/P), 3POPC/1POPG Vesicle [5, 9]: 469 L/P
- Peptide Concentration-induced 50 % ANTS/DPX leakage at pH 7.4 (L/P), POPC Vesicle [5, 9]: 747 L/P
- ∆G binding [6]: -8.8 ± 1.2 kcal/mol
- HC50 (human red blood cells): 14 ± 5 µM

SMILES: CC(C)C[C@@H](NC(=O)CN)C(=O)N[C@H](CC(C)C)C(=O)N[C@H](CC(=O)O)C(=O)N[C@H](CC(C)C)C(=O)N[C@H](CC(C)C)C(=O)N[C@H](Cc1c[nH]cn1)C(=O)N[C@H](CC(C)C)C(=O)N[C@H](CC(C)C)C(=O)N[C@H](CC(C)C)C(=O)N[C@H](CCCCN)C(=O)N[C@H](C)C(=O)N[C@H](C)C(=O)NCC(=O)N[C@H](Cc1c[nH]c2ccccc12)C(N)=O [d-DHK] (H-G[dL][dL][dD][dL][dL][dH][dL][dL][dL][dK][dA][dA]G[dW]-NH2)
- IC50 (HMLER‐shEcad [2]; [8]): 0.23 ± 0.04 µM
- IC50 (HMLER‐shEcad [2]; one value printed for each pair of peptides, cell line not given, read-out: IC50 (anticancer activity)): 0.3 ± 0.1 µM
- IC50 (MCF‐10A; 2D culture): 0.55 ± 0.06 µM
- IC50 (HMLER): 0.32 ± 0.07 µM
- IC50 (U2OS): 1.24 ± 0.03 µM
- IC50 (HEK293T): 1.55 ± 0.37 µM
- D‐enantiomer average IC90 against MCF‐10A mammospheres (MCF‐10A mammospheres): 8 ± 5 µM
- HC50 (human red blood cells): 14 ± 5 µM

SMILES: CC(C)C[C@@H](NC(=O)CN)C(=O)N[C@H](CC(C)C)C(=O)N[C@H](CCC(=O)O)C(=O)N[C@H](CC(C)C)C(=O)N[C@H](CC(C)C)C(=O)N[C@H](CCC(=O)O)C(=O)N[C@H](CC(C)C)C(=O)N[C@H](CC(C)C)C(=O)N[C@H](CC(C)C)C(=O)N[C@H](CCCCN)C(=O)N[C@H](C)C(=O)N[C@H](C)C(=O)NCC(=O)N[C@H](Cc1c[nH]c2ccccc12)C(N)=O [d-EEK] (H-G[dL][dL][dE][dL][dL][dE][dL][dL][dL][dK][dA][dA]G[dW]-NH2)
- IC50 (HMLER‐shEcad [2]; [8]): 0.29 ± 0.01 µM
- IC50 (HMLER‐shEcad [2]; 2D culture, read-out: IC50, HMLER-shEcad cell viability, compound alone): 0.3 ± 0.1 µM
- IC50 (HMLER‐shEcad [2]; read-out: IC50, HMLER-shEcad cell viability, together with 5 µM caspase inhibitor z-VAD-FMK, 2D culture, co-incubation with 5 µM z-VAD-FMK): 0.3 ± 0.1 µM
- IC50 (MCF‐10A; 2D culture): 1.07 ± 0.1 µM
- IC50 (HMLER): 0.29 ± 0.01 µM
- IC50 (U2OS): 4.78 ± 0.02 µM
- IC50 (HEK293T): 2.82 ± 0.07 µM
- D‐enantiomer average IC90 against MCF‐10A mammospheres (MCF‐10A mammospheres): 8 ± 5 µM
- HC50 (human red blood cells): 14 ± 5 µM

SMILES: COc1cccc2c1C(=O)c1c(O)c3c(c(O)c1C2=O)C[C@@](O)(C(=O)CO)C[C@@H]3O[C@H]1C[C@H](N)[C@H](O)[C@H](C)O1 [Doxorubicin, Doxorubicin hydrochloride, reference compound]
- IC90 in 2D assay (HMLER‐shEcad [2]; 2D HMLER‐shEcad (Figure 3d,f), cells remained viable in the high micromolar range): could not be attained
- IC50 (HMLER‐shEcad [2]; Homo sapiens, read-out: IC50, HMLER-shEcad cell viability, 2D culture, co-incubation with 5 µM z-VAD-FMK): 0.0477 ± 0.0026 µM
- IC50 (HMLER‐shEcad [2]; Homo sapiens, read-out: IC50, HMLER-shEcad cell viability, 2D culture, co-incubation with 20 µM necrostatin-1): 0.0631 ± 0.0042 µM
- IC50 (HMLER‐shEcad [2]; Homo sapiens, 2D culture, read-out: IC50, HMLER-shEcad cell viability, compound alone): 0.0031 ± 0.0004 µM
- therapeutic window (fold IC50) in 2D assays (MCF‐10A; 2D assays): > 100 fold
- selectivity for cancerous cells over non‐tumorigenic MCF‐10A (MCF‐10A; 2D culture, ratio of IC50): > 160 fold
- IC50 (HMLER‐shEcad [4]; 240 h, 2D HMLER‐shEcad after 10 days co‐incubation with 30 nM doxorubicin, read-out: IC50 of doxorubicin after prolonged doxorubicin exposure): 0.189 ± 0.068 µM
- IC50 (HMLER‐shEcad [4]; 2D HMLER‐shEcad, vehicle, read-out: IC50 of doxorubicin, cells before/without doxorubicin exposure): 0.024 ± 0.002 µM
- IC90 against MCF‐10A mammospheres (MCF‐10A mammospheres): 167 ± 7 µM
- therapeutic window (fold IC50) in the 3D assay (MCF‐10A mammospheres; 3D spheroid assay): ≈ 3 fold
- tumorsphere cell viability ([7]; HMLER‐shEcad tumorspheres, at 133 µM): > 15%
- IC50 ([7]; Homo sapiens, 120 h, 3D multicellular spheroids, 5 days, TOX8 fluorescence read-out, read-out: IC50 against HMLER‐shEcad tumorspheres): 43 ± 6 µM
- IC90 ([7]; Homo sapiens, 3D multicellular spheroids, reducing tumorsphere cell viability by 90%, read-out: IC90 against HMLER‐shEcad tumorspheres): 138 ± 11 µM
